Laboratory results as given in patent EP0991637B1, “BENZO(5,6)CYCLOHEPTA(1,2-B)PYRIDINE DERIVATIVES AS FARNESYL PROTEIN TRANSFERASE INHIBITORS” (SCHERING CORPORATION, priority 1997, dated 1998).

test system: COS Cell; assay: COS Cell IC50 (Cell-Based Assay), procedure of WO 95/10516; conditions: range stated for the whole group of compounds
Description: FPT IC50 (inhibition of farnesyl protein transferase, in vitro enzyme assay) and COS Cell IC50 (Cell-Based Assay) were determined following the assay procedures described in WO 95/10516, published April 20, 1995. GGPT IC50 (inhibition of geranylgeranyl protein transferase, in vitro enzyme assay), Cell Mat Assay, and anti-tumor activity (in vivo anti-tumor studies) could be determined by the assay procedures described in WO 95/10516. The disclosure of WO 95/10516 is incorporated herein by reference thereto.

Row | Compound | IC50 [nM]
1 | O=C(O)CC1CCC(CC(=O)N2CCC([C@H]3c4ncc(Br)cc4CCc4cc(Cl)cc(Br)c43)CC2)CC1 (stereo partly shown) [Example 13] | 10 to 500
2 | NC(=O)C1CCC(CC(=O)N2CCC([C@H]3c4ncc(Br)cc4CCc4cc(Cl)cc(Br)c43)CC2)CC1 (stereo partly shown) [Example 23] | 10 to 500
3 | O=C(O)Cc1ccc(CC(=O)N2CCC([C@H]3c4ncc(Br)cc4CCc4cc(Cl)cc(Br)c43)CC2)cc1 [Example 3] | 10 to 500
4 | COC(=O)Cc1ccc(CC(=O)N2CCC([C@H]3c4ncc(Br)cc4CCc4cc(Cl)cc(Br)c43)CC2)cc1 [Example 34] | 10 to 500
5 | O=C(O)C[C@H]1CC[C@H](C(=O)N2CCC([C@H]3c4ncc(Br)cc4CCc4cc(Cl)cc(Br)c43)CC2)CC1 [Example 36] | 10 to 500
6 | COC(=O)CNC(=O)Cc1cccc(CC(=O)N2CCC([C@H]3c4ncc(Br)cc4CCc4cc(Cl)cc(Br)c43)CC2)c1 [Example 17] | 10 to 500
7 | COC(=O)CNC(=O)Cc1ccc(CC(=O)N2CCC([C@H]3c4ncc(Br)cc4CCc4cc(Cl)cc(Br)c43)CC2)cc1 [Example 18] | 10 to 500
8 | NC(=O)CC1CCC(CC(=O)N2CCC([C@H]3c4ncc(Br)cc4CCc4cc(Cl)cc(Br)c43)CC2)CC1 (stereo partly shown) [Example 22] | 10 to 500
9 | O=C(O)C=C1CCC(=CC(=O)N2CCC([C@H]3c4ncc(Br)cc4CCc4cc(Cl)cc(Br)c43)CC2)CC1 [Example 14] | 10 to 500
10 | NC(=O)Cc1ccc(CC(=O)N2CCC([C@H]3c4ncc(Br)cc4CCc4cc(Cl)cc(Br)c43)CC2)cc1 [Example 15] | 10 to 500
11 | NC(=O)Cc1cccc(CC(=O)N2CCC([C@H]3c4ncc(Br)cc4CCc4cc(Cl)cc(Br)c43)CC2)c1 [Example 16] | 10 to 500
12 | O=C(O)C[C@H]1CC[C@@H](C(=O)N2CCC([C@H]3c4ncc(Br)cc4CCc4cc(Cl)cc(Br)c43)CC2)CC1 [Example 35] | 10 to 500
13 | CCOC(=O)C1CCC(CC(=O)N2CCC([C@H]3c4ncc(Br)cc4CCc4cc(Cl)cc(Br)c43)CC2)CC1 (stereo partly shown) [Example 8] | 10 to 500
14 | O=C(O)Cc1cccc(CC(=O)N2CCC([C@H]3c4ncc(Br)cc4CCc4cc(Cl)cc(Br)c43)CC2)c1 [Example 4] | 10 to 500
15 | CONC(=O)Cc1ccc(CC(=O)N2CCC([C@H]3c4ncc(Br)cc4CCc4cc(Cl)cc(Br)c43)CC2)cc1 [Example 19] | 10 to 500
16 | NC(=O)[C@H]1C[C@@H]1C(=O)N1CCC([C@H]2c3ncc(Br)cc3CCc3cc(Cl)cc(Br)c32)CC1 [Compound 55.0, Trans-2(S)-[[4-(3,10-dibromo-8-chloro-6,11-dihydro-5H-benzo[5,6]cyclohepta[1,2-b]pyridin-11(R)-yl)-1-piperidinyl]carbonyl]-(S)-cyclopropanecarboxamide] | 10 to 500
17 | O=C(O)C1CCC(CC(=O)N2CCC([C@H]3c4ncc(Br)cc4CCc4cc(Cl)cc(Br)c43)CC2)CC1 (stereo partly shown) [Example 12] | 10 to 500

test system: Human tumor cells; assay: Soft Agar Assay (anchorage-independent growth, colony outgrowth, MTT staining); assay type: cell-based; conditions: 0.3% agarose over 0.6% agarose, 10-16 days at 37°C under 5% CO2
Description: Anchorage-independent growth is a characteristic of tumorigenic cell lines. Human tumor cells are suspended in growth medium containing 0.3% agarose and an indicated concentration of a farnesyl transferase inhibitor. The solution is overlayed onto growth medium solidified with 0.6% agarose containing the same concentration of farnesyl transferase inhibitor as the top layer. After the top layer is solidified, plates are incubated for 10-16 days at 37°C under 5% CO2 to allow colony outgrowth. After incubation, the colonies are stained by overlaying the agar with a solution of MTT (3-[4,5-dimethyl-thiazol-2-yl]-2,5-diphenyltetrazolium bromide, Thiazolyl blue) (1 mg/mL in PBS). Colonies can be counted and the IC50's can be determined.

Row | IC50 [nM] | Compound
18 | > 500 | O=C(O)C=C1CCC(=CC(=O)N2CCC([C@H]3c4ncc(Br)cc4CCc4cc(Cl)cc(Br)c43)CC2)CC1 [Example 14]
19 | > 500 | CCOC(=O)C1CCC(CC(=O)N2CCC([C@H]3c4ncc(Br)cc4CCc4cc(Cl)cc(Br)c43)CC2)CC1 (stereo partly shown) [Example 8]
